Legend:
[1] = tested on: HCT-116; experiment: Growth inhibition of human HCT116 cells assessed as cell growth at 10 uM after 48 hrs by sulforhodamine B assay; type: functional; details: HCT-116, 48 h, read-out: Activity
[2] = tested on: HT-29; experiment: Growth inhibition of human HT-29 cells assessed as cell growth at 5X10'-6 M after 48 hrs by sulforhodamine B assay; type: functional; details: HT-29, 48 h, read-out: Activity
[3] = tested on: SNB-19; experiment: Growth inhibition of human SNB19 cells after 48 hrs by sulforhodamine B assay; type: functional; details: SNB-19, 48 h
[4] = tested on: SNB-19; experiment: Growth inhibition of human SNB19 cells assessed as cell growth at 5X10'-9 M after 48 hrs by sulforhodamine B assay; type: functional; details: SNB-19, 48 h, read-out: Activity
[5] = tested on: NCI-H322M; experiment: Growth inhibition of human NCI-H322M cells assessed as cell growth at 5X10'-6 M after 48 hrs by sulforhodamine B assay; type: functional; details: read-out: Activity
[6] = tested on: M14; experiment: Growth inhibition of human M14 cells assessed as cell growth at 10 uM after 48 hrs by sulforhodamine B assay; type: functional; details: M14, 48 h, read-out: Activity
[7] = tested on: A498; experiment: Growth inhibition of human A498 cells assessed as cell growth at 5X10'-7 M after 48 hrs by sulforhodamine B assay; type: functional; details: A498, 48 h, read-out: Activity
[8] = tested on: OVCAR-4; experiment: Growth inhibition of human OVCAR4 cells assessed as cell growth at 10 uM after 48 hrs by sulforhodamine B assay; type: functional; details: OVCAR-4, 48 h, read-out: Activity
[9] = tested on: M14; experiment: Growth inhibition of human M14 cells assessed as cell growth at 5X10'-8 M after 48 hrs by sulforhodamine B assay; type: functional; details: M14, 48 h, read-out: Activity
[10] = tested on: SK-MEL-5; experiment: Growth inhibition of human SK-MEL-5 cells assessed as cell growth at 10 uM after 48 hrs by sulforhodamine B assay; type: functional; details: SK-MEL-5, 48 h, read-out: Activity
[11] = tested on: PC-3; experiment: Growth inhibition of human PC3 cells after 48 hrs by sulforhodamine B assay; type: functional, cell-based; details: PC-3, 48 h; for CC50: read-out: LC50 (the source's name)
[12] = tested on: CCRF-CEM; experiment: Growth inhibition of human CCRF-CEM cells assessed as cell growth at 5X10'-9 M after 48 hrs by sulforhodamine B assay; type: functional; details: read-out: Activity
[13] = tested on: Malme-3M; experiment: Growth inhibition of human MALME-3M cells assessed as cell growth at 5X10'-7 M after 48 hrs by sulforhodamine B assay; type: functional; details: read-out: Activity
[14] = tested on: HT-29; experiment: Growth inhibition of human HT-29 cells assessed as cell growth at 10 uM after 48 hrs by sulforhodamine B assay; type: functional; details: HT-29, 48 h, read-out: Activity
[15] = tested on: SK-OV-3; experiment: Growth inhibition of human SKOV3 cells after 48 hrs by sulforhodamine B assay; type: functional; details: SK-OV-3, 48 h; for CC50: read-out: LC50 (the source's name)
[16] = tested on: HT-29; experiment: Growth inhibition of human HT-29 cells after 48 hrs by sulforhodamine B assay; type: functional; details: HT-29, 48 h; for CC50: read-out: LC50 (the source's name)
[17] = Growth inhibition of human Hs 578T cells assessed as cell growth at 5X10'-5 M after 48 hrs by sulforhodamine B assay; type: functional; details: read-out: Activity
[18] = tested on: HOP-92; experiment: Growth inhibition of human HOP92 cells assessed as cell growth at 5X10'-6 M after 48 hrs by sulforhodamine B assay; type: functional; details: HOP-92, 48 h, read-out: Activity
[19] = tested on: SF-539; experiment: Growth inhibition of human SF539 cells assessed as cell growth at 5X10'-7 M after 48 hrs by sulforhodamine B assay; type: functional; details: SF-539, 48 h, read-out: Activity
[20] = tested on: SN12C; experiment: Growth inhibition of human SN12C cells assessed as cell growth at 5X10'-9 M after 48 hrs by sulforhodamine B assay; type: functional; details: read-out: Activity
[21] = tested on: OVCAR-5; experiment: Growth inhibition of human OVCAR5 cells assessed as cell growth at 5X10'-9 M after 48 hrs by sulforhodamine B assay; type: functional; details: OVCAR-5, 48 h, read-out: Activity
[22] = tested on: NCI-H522; experiment: Growth inhibition of human NCI-H522 cells assessed as cell growth at 5X10'-5 M after 48 hrs by sulforhodamine B assay; type: functional; details: NCI-H522, 48 h, read-out: Activity
[23] = tested on: NCI-H23; experiment: Growth inhibition of human NCI-H23 cells assessed as cell growth at 10 uM after 48 hrs by sulforhodamine B assay; type: functional; details: NCI-H23, 48 h, read-out: Activity
[24] = tested on: LOX IMVI; experiment: Growth inhibition of human LOXIMVI cells assessed as cell growth at 10 uM after 48 hrs by sulforhodamine B assay; type: functional; details: read-out: Activity
[25] = tested on: 786-0; experiment: Growth inhibition of human 786-0 cells assessed as cell growth at 5X10'-9 M after 48 hrs by sulforhodamine B assay; type: functional; details: 786-0, 48 h, read-out: Activity
[26] = tested on: MCF7; experiment: Growth inhibition of human MCF7 cells assessed as cell growth at 5X10'-7 M after 48 hrs by sulforhodamine B assay; type: functional; details: MCF7, 48 h, read-out: Activity
[27] = tested on: KM12; experiment: Growth inhibition of human KM12 cells assessed as cell growth at 5X10'-9 M after 48 hrs by sulforhodamine B assay; type: functional; details: KM12, 48 h, read-out: Activity
[28] = tested on: MDA-MB-231; experiment: Growth inhibition of human MDA-MB-231 cells after 48 hrs by sulforhodamine B assay; type: functional; details: MDA-MB-231, 48 h
[29] = tested on: HL-60(TB); experiment: Growth inhibition of human HL-60(TB) cells assessed as cell growth at 5X10'-8 M after 48 hrs by sulforhodamine B assay; type: functional; details: HL-60, 48 h, read-out: Activity
[30] = tested on: SK-MEL-2; experiment: Growth inhibition of human SK-MEL-2 cells assessed as cell growth at 5X10'-9 M after 48 hrs by sulforhodamine B assay; type: functional; details: SK-MEL-2, 48 h, read-out: Activity
[31] = Growth inhibition of human Hs 578T cells assessed as cell growth at 5X10'-6 M after 48 hrs by sulforhodamine B assay; type: functional; details: read-out: Activity
[32] = tested on: NCI-H226; experiment: Growth inhibition of human NCI-H226 cells assessed as cell growth at 5X10'-6 M after 48 hrs by sulforhodamine B assay; type: functional; details: NCI-H226, 48 h, read-out: Activity
[33] = tested on: ACHN; experiment: Growth inhibition of human ACHN cells assessed as cell growth at 5X10'-7 M after 48 hrs by sulforhodamine B assay; type: functional; details: read-out: Activity
[34] = tested on: U-251; experiment: Growth inhibition of human U251 cells assessed as cell growth at 5X10'-5 M after 48 hrs by sulforhodamine B assay; type: functional; details: U-251, 48 h, read-out: Activity
[35] = tested on: MCF7; experiment: Growth inhibition of human MCF7 cells assessed as cell growth at 5X10'-6 M after 48 hrs by sulforhodamine B assay; type: functional; details: MCF7, 48 h, read-out: Activity
[36] = tested on: NCI-H23; experiment: Growth inhibition of human NCI-H23 cells assessed as cell growth at 5X10'-9 M after 48 hrs by sulforhodamine B assay; type: functional; details: NCI-H23, 48 h, read-out: Activity

COc1cc(-c2nn(-c3cccc(NC(=O)Nc4ccc(Cl)c(Cl)c4)c3)cc2-c2ccncc2)ccc1Cl
growth at 10 µM [1]: 8.67%
growth at 5 µM [2]: 2%
GI50 [3]: 1720 nM
LC50 (concentration killing 50% of cells) [3]: > 50000 nM
TGI [3]: > 50000 nM
growth at 0.005 µM [4]: 92%
growth at 5 µM [5]: 15%
growth at 10 µM [6]: 0.29%
growth at 0.5 µM [7]: 80%
growth at 10 µM [8]: 19.8%
growth at 0.05 µM [9]: 100%
growth at 10 µM [10]: -80%
GI50 [11]: 554 nM
IC50 [11]: 550 nM
TGI [11]: 2830 nM
CC50 [11]: > 50000 nM
growth at 0.005 µM [12]: 101%
growth at 0.5 µM [13]: 82%
growth at 10 µM [14]: 1.12%
GI50 [15]: 1930 nM
TGI [15]: > 50000 nM
CC50 [15]: > 50000 nM
GI50 [16]: 1240 nM
TGI [16]: 6460 nM
CC50 [16]: > 50000 nM
growth at 50 µM [17]: 4%
growth at 5 µM [18]: -40%
growth at 0.5 µM [19]: 78%
growth at 0.005 µM [20]: 94%
growth at 0.005 µM [21]: 93%
growth at 50 µM [22]: -26%
growth at 10 µM [23]: 1.67%
growth at 10 µM [24]: 1.38%
growth at 0.005 µM [25]: 100%
growth at 0.5 µM [26]: 68%
growth at 0.005 µM [27]: 103%
GI50 [28]: 698 nM
LC50 [28]: 12900 nM
TGI [28]: 1920 nM
growth at 0.05 µM [29]: 114%
growth at 0.005 µM [30]: 109%
growth at 5 µM [31]: 11%
growth at 5 µM [32]: 8%
growth at 0.5 µM [33]: 70%
growth at 50 µM [34]: -49%
growth at 5 µM [35]: 2%
growth at 0.005 µM [36]: 97%

COc1cc(-c2nn(-c3cccc(NC(=O)Nc4cccc(C(F)(F)F)c4)c3)cc2-c2ccncc2)ccc1Cl
growth at 10 µM [1]: 0.06%
growth at 5 µM [2]: -54%
GI50 [3]: 981 nM
LC50 (concentration killing 50% of cells) [3]: > 50000 nM
TGI [3]: 4000 nM
growth at 0.005 µM [4]: 96%
growth at 5 µM [5]: -2%
growth at 10 µM [6]: -61.5%
growth at 0.5 µM [7]: 73%
growth at 10 µM [8]: 11.1%
growth at 0.05 µM [9]: 97%
growth at 10 µM [10]: -97.8%
GI50 [11]: 372 nM
IC50 [11]: 370 nM
TGI [11]: 2510 nM
CC50 [11]: > 50000 nM
growth at 0.005 µM [12]: 104%
growth at 0.5 µM [13]: 94%
growth at 10 µM [14]: -64%
GI50 [15]: 2020 nM
TGI [15]: > 50000 nM
CC50 [15]: > 50000 nM
GI50 [16]: 748 nM
TGI [16]: 1870 nM
CC50 [16]: 4670 nM
growth at 50 µM [17]: -6%
growth at 5 µM [18]: -45%
growth at 0.5 µM [19]: 79%
growth at 0.005 µM [20]: 97%
growth at 0.005 µM [21]: 84%
growth at 50 µM [22]: -41%
growth at 10 µM [23]: -12.4%
growth at 10 µM [24]: -64.2%
growth at 0.005 µM [25]: 95%
growth at 0.5 µM [26]: 60%
growth at 0.005 µM [27]: 104%
GI50 [28]: 811 nM
LC50 [28]: 25500 nM
TGI [28]: 2370 nM
growth at 0.05 µM [29]: 94%
growth at 0.005 µM [30]: 101%
growth at 5 µM [31]: 4%
growth at 5 µM [32]: 7%
growth at 0.5 µM [33]: 58%
growth at 50 µM [34]: -84%
growth at 5 µM [35]: 2%
growth at 0.005 µM [36]: 96%

— ChEMBL document CHEMBL2440076, “New triarylpyrazoles as broad-spectrum anticancer agents: design, synthesis, and biological evaluation” (Eur J Med Chem, 2013)
